A word on the IC50: it is the midpoint of a concentration-inhibition curve.

From patent US20240059703A1 (AMGEN INC., priority 2021, published 2024) come the findings set out here.

For assay [1], the system named is MIA PaCa-2 (human pancreatic carcinoma) cells. The assay is described as follows: Cell Viability Assay (CellTiter-Glo), MIA PaCa-2. To be noted: Homo sapiens, MIA PaCa-2, 72 h. Format: cell-based. As for the experimental part:
Serially-diluted compound or DMSO was added to the cells, and plates were incubated at 37° C., 5% CO2 for 72 h. Cell viability was measured using a CellTiter-Glo® Luminescent Cell Viability Assay kit (Promega) according to the manufacturer's protocol. The luminescence signal of treated samples was normalized to DMSO control, and data were analyzed using a 4-parameter logistic model to calculate IC50 values.
In general terms: ATP-based viability assays read luminescence as a measure of living cells.

For another assay, the target named is KRAS G12C (Homo sapiens (Human), UniProt P01116, C118A/G12C). The assay can be described thus: 2 h coupled exchange assay. To be noted: Avg 2 h Coupled exchange IC50, 2 h compound pre-incubation. Format: biochemical. As for the experimental part:
The term “2 h coupled exchange assay” or “20 h coupled exchange assay” as used herein refers to the assay described in the Section entitled “BIOLOGICAL EVALUATION.”

Assay [2] deals with A549 (human lung carcinoma) cells. The assay can be described thus: Cell Viability Assay (CellTiter-Glo), A549. Format: cell-based. To be noted: Homo sapiens, A549, 72 h. A digest of the protocol: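 RPMI 1640/10% FBS; seed 1.67E+04 cells/mL, o/n 37° C., 5% CO2; serial-dilution cmpd 72 h; CellTiter-Glo luminescence vs DMSO; 4-parameter logistic fit → IC50.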
Setting [3] is: SOS-mediated nucleotide exchange.

KRAS G12C, sequence (P01116 other isoform, or with tags, fused parts or gaps G12C/C118A): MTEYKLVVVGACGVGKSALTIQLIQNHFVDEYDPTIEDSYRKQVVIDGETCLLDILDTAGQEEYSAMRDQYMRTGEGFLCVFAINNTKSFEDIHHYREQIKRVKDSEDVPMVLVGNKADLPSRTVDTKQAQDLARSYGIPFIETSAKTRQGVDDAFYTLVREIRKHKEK

`C=CC(=O)N1CC2(CCN(c3nc4c(c(-c5ccc(F)cc5F)c3C#N)CCN(c3ccc(OC)cc3)C4)C2)C1` [Example 21-7, 4-(2,4-difluorophenyl)-7-(4-methoxyphenyl)-2-(2-(2-propenoyl)-2,6-diazaspiro[3.4]octan-6-yl)-5,6,7,8-tetrahydro-1,7-naphthyridine-3-carbonitrile]: the IC50 is 749 nM in assay [1], 94 nM on KRAS G12C and 6020 nM in assay [2].

Regarding `C=CC(=O)N1CC2(CCN(c3nc4c(c(-c5ccc(F)cc5Cl)c3C#N)COC(c3scnc3C)C4)C2)C1` [Example 23-20, (7R)-4-(2-chloro-4-fluorophenyl)-7-(4-methyl-1,3-thiazol-5-yl)-2-(2-(2-propenoyl)-2,6-diazaspiro[3.4]octan-6-yl)-7,8-dihydro-5H-pyrano[4,3-b]pyridine-3-carbonitrile (7S)-4-(2-chloro-4-fluorophenyl)-7-(4-methyl-1,3-thiazol-5-yl)-2-(2-(2-propenoyl)-2,6-diazaspiro[3.4]octan-6-yl)-7,8-dihydro-5H-pyrano[4,3-b]pyridine-3-carbonitrile], the IC50 in assay [1] turned out to be 1150 nM; at KRAS G12C, 227 nM; in assay [2], 8250 nM.

Take `C=CC(=O)N1CC2(CCN(c3nc4c(c(-c5cc(O)ccc5C)c3Cl)COC(C)(C)C4)C2)C1` [Example 2-79, 1-(6-(3-chloro-4-(5-hydroxy-2-methylphenyl)-7,7-dimethyl-7,8-dihydro-5H-pyrano[4,3-b]pyridin-2-yl)-2,6-diazaspiro[3.4]octan-2-yl)-2-propen-1-one]: the IC50 in assay [1] was 159 nM; against KRAS G12C (setting [3]) it was 71 nM; in assay [2] it was above 5000 nM.

For the compound `C=CC(=O)N1CC2(CCN(c3nc4c(N5CCN(C)CC5)ccn4c(-c4c(C)ccc5[nH]ncc45)c3C#N)C2)C1` [Example 1-53], the IC50 in assay [1] was 13400 nM; at KRAS G12C (setting [3]), 99 nM; in assay [2] it was above 50000 nM.

As for `C=CC(=O)N1CC2(CCN(c3cn4c(C)cnc4c(-c4c(C)ccc5[nH]ncc45)c3C#N)C2)C1` [Example 1-37, 3-methyl-8-(5-methyl-1H-indazol-4-yl)-6-(2-(2-propenoyl)-2,6-diazaspiro[3.4]octan-6-yl)imidazo[1,2-a]pyridine-7-carbonitrile], the IC50 in assay [1] was 2280 nM; against KRAS G12C (setting [3]), 402 nM; in assay [2], above 25000 nM.

In the case of `C=CC(=O)N1CC2(CCN(c3nc4c(c(-c5c(C)ccc6[nH]ncc56)c3C)CCN(C3CC3)C4)C2)C1` [Example 18-16, 1-(6-(7-cyclopropyl-3-methyl-4-(5-methyl-1H-indazol-4-yl)-5,6,7,8-tetrahydro-1,7-naphthyridin-2-yl)-2,6-diazaspiro[3.4]octan-2-yl)-2-propen-1-one], the IC50 in assay [1] is 188 nM; on KRAS G12C it was 355 nM; in assay [2], above 5000 nM.

Turning to `C=CC(=O)N1CC2(CCN(c3nc4c(OC)cccc4c(-c4c(C)ccc5[nH]ncc45)c3C#N)C2)C1` [Example 14-47, 8-methoxy-4-(5-methyl-1H-indazol-4-yl)-2-(2-(2-propenoyl)-2,6-diazaspiro[3.4]octan-6-yl)-3-quinolinecarbonitrile], the IC50 in assay [1] was above 5000 nM; against KRAS G12C it was 482 nM; in assay [2], above 5000 nM.

`C=CC(=O)N1CC2(CCN(c3nc4c(c(-c5cc(O)cc6ccccc56)c3C)COC(C)(C)C4)C2)C1` (single isomer, unassigned) [Example 14-103, (M)-1-(6-(4-(3-hydroxy-1-naphthalenyl)-3,7,7-trimethyl-7,8-dihydro-5H-pyrano[4,3-b]pyridin-2-yl)-2,6-diazaspiro[3.4]octan-2-yl)-2-propen-1-one]: the IC50 in assay [1] worked out at 32 nM; at KRAS G12C, 45 nM; in assay [2] it was 7620 nM.

In the case of `C=CC(=O)N1CC2(CCN(c3nc4cc(-c5scnc5C)cnc4c(-c4ccccc4OC)c3C#N)C2)C1` [Example 19-6, 4-(2-methoxyphenyl)-7-(4-methyl-1,3-thiazol-5-yl)-2-(2-(2-propenoyl)-2,6-diazaspiro[3.4]octan-6-yl)-1,5-naphthyridine-3-carbonitrile], the IC50 is 1130 nM in assay [1], 363 nM on KRAS G12C and above 5000 nM in assay [2].

With `C=CC(=O)N1CC2(CCN(c3nc4c(c(-c5ccccc5F)c3C#N)CCN(c3ncc(C)s3)C4)C2)C1` [Example 21-20, 4-(2-fluorophenyl)-7-(5-methyl-1,3-thiazol-2-yl)-2-(2-(2-propenoyl)-2.6-diazaspiro[3.4]octan-6-yl)-5,6,7,8-tetrahydro-1,7-naphthyridine-3-carbonitrile], the IC50 in assay [1] amounted to 5250 nM; against KRAS G12C, 973 nM; in assay [2] it was 9880 nM.

As for `C=CC(=O)N1CC2(CCN(c3nc4c(c(-c5c(C)ccc6ccccc56)n3)CCCC4)C2)C1` [Example 1-12, 1-(6-(4-(2-methyl-1-naphthalenyl)-5,6,7,8-tetrahydro-2-quinazolinyl)-2,6-diazaspiro[3.4]octan-2-yl)-2-propen-1-one], the IC50 in assay [1] was 5390 nM; against KRAS G12C (setting [3]) it was 2590 nM; in assay [2], 7230 nM.

With `C=CC(=O)N1CC2(CCN(c3nc4c(c(-c5c(C)ccc6[nH]ncc56)c3C#N)CC(C)(C)C4)[C@@H]2C)C1` (atropisomer, axis not shown; (P)) [Example 13-54, (P)-6,6-dimethyl-4-(5-methyl-1H-indazol-4-yl)-2-((5R)-5-methyl-2-(2-propenoyl)-2,6-diazaspiro[3.4]octan-6-yl)-6,7-dihydro-5H-cyclopenta[b]pyridine-3-carbonitrile], the IC50 is 58 nM in assay [1], 17 nM at KRAS G12C (setting [3]) and above 5000 nM in assay [2].

`C=CC(=O)N1CC2(CCN(c3nc4c(c(-c5c(C(C)C)ccc6[nH]ncc56)n3)CCCC4)C2)C1` [Example 1-35, 1-(6-(4-(5-(2-propanyl)-1H-indazol-4-yl)-5,6,7,8-tetrahydro-2-quinazolinyl)-2,6-diazaspiro[3.4]octan-2-yl)-2-propen-1-one]: the figures for the half-inhibitory concentration (IC50) (in assay [1]; on KRAS G12C (setting [3]); in assay [2]) were 2370 nM, 1550 nM and 7120 nM, respectively.

For `C=CC(=O)N1CC2(CCN(c3nc4c(c(-c5cccc(O)c5F)c3C#N)CCC(c3scnc3C)=C4)C2)C1` [Example 23-43, 4-(2-fluoro-3-hydroxyphenyl)-7-(4-methyl-1,3-thiazol-5-yl)-2-(2-(2-propenoyl)-2,6-diazaspiro[3.4]octan-6-yl)-5,6-dihydro-3-quinolinecarbonitrile], the 50% inhibitory concentration (IC50) in assay [1] is 4560 nM; on KRAS G12C, 299 nM; in assay [2] it was 8380 nM.

For the compound `C=CC(=O)N1CC2(CCN(c3nc4cc(-c5scnc5C)cnc4c(-c4ccc(F)c(O)c4)c3C#N)C2)C1` [Example 20-22, 4-(4-fluoro-3-hydroxyphenyl)-7-(4-methyl-1,3-thiazol-5-yl)-2-(2-(2-propenoyl)-2,6-diazaspiro[3.4]octan-6-yl)-1,5-naphthyridine-3-carbonitrile], the values for the IC50 (in assay [1]; at KRAS G12C; in assay [2]) were 7480 nM, 371 nM and 12100 nM, respectively.

For the compound `C=CC(=O)N1CC2(CCN(c3nc4c(c(-c5c(C)c(C)cc6cnn(C)c56)c3C)COC(C)(C)C4)C2)C1` (single isomer, unassigned) [Example 14-41, (P)-1-(6-(3,7,7-trimethyl-4-(1,5,6-trimethyl-1H-indazol-7-yl)-7,8-dihydro-5H-pyrano[4,3-b]pyridin-2-yl)-2,6-diazaspiro[3.4]octan-2-yl)-2-propen-1-one], the IC50 is 408 nM in assay [1], 66 nM at KRAS G12C and above 5000 nM in assay [2].

Take `C=CC(=O)N1CC2(CCN(c3nc4c(c(-c5ncccc5F)c3C#N)CCN(c3scnc3C)C4)C2)C1` [Example 21-10, 4-(3-fluoro-2-pyridinyl)-7-(4-methyl-1,3-thiazol-5-yl)-2-(2-(2-propenoyl)-2,6-diazaspiro[3.4]octan-6-yl)-5,6,7,8-tetrahydro-1,7-naphthyridine-3-carbonitrile]: the IC50 is 716 nM in assay [1], 189 nM on KRAS G12C and above 5000 nM in assay [2].

For the compound `C=CC(=O)N1CC2(CCN(c3nc4c(c(-c5c(C)c(C)cc6cnn(C)c56)c3C#N)COC(C)(C)C4)C2)C1` [Example 13-90, 7,7-dimethyl-2-(2-(2-propenoyl)-2,6-diazaspiro[3.4]octan-6-yl)-4-(1,5,6-trimethyl-1H-indazol-7-yl)-7,8-dihydro-5H-pyrano[4,3-b]pyridine-3-carbonitrile], the results for the IC50 (in assay [1]; at KRAS G12C (setting [3]); in assay [2]) were 24 nM, 27 nM and above 5000 nM, respectively.

`C=CC(=O)N1CC2(CCN(c3nc4c(c(-c5c(C)ccc6cn[nH]c56)c3C#N)C[C@H]3C[C@@H]4C3(C)C)C2)C1` [Example 14-48, (1R,9R)-10,10-dimethyl-6-(6-methyl-1H-indazol-7-yl)-4-(2-(2-propenoyl)-2,6-diazaspiro[3.4]octan-6-yl)-3-azatricyclo[7.1.1.0^2,7]undeca-2,4,6-triene-5-carbonitrile]: the IC50 was 53 nM in assay [1], 61 nM on KRAS G12C and above 5000 nM in assay [2].
